# From ChEMBL document CHEMBL1124775 (J Med Chem, 1990)
# Species on record: Rattus norvegicus
# Test: Binding of [3H]diprenorphine to rat brain membranes was evaluated and the dissociation constant (KD) was determined.
# Design: species or system Membrane
structure (smiles),measurement,value
C=CCN1CC[C@]23c4c5ccc(O)c4O[C@H]2C(=O)CC[C@@]3(O)[C@H]1C5 [NALOXONE],Kd,10 nM
